The target of this test is Complex I. Nature of the test: Assay A: Determination of Complex I mediated ROS-inhibition (CI). The format is biochemical. Conditions: read-out: CI IC50; ROS generation by Complex I purified from bovine heart, Amplex Red/horse radish peroxidase readout, 8 point concentration-response.
In general, IC50 refers to the concentration needed to halve the response being measured. Turning to `CC1CCC(C)N1c1ccc2c(c1)/C(=C1\COCCN1)C(=O)N2C` (stereo not shown) [Compound 84], the IC50 worked out at 333 nM.

As to `CC1CCN(c2ccc3c(c2)/C(=C2\COCCN2)C(=O)N3C2CCOCC2)CC1` [Compound 85], the IC50 worked out at 69 nM.

As to `O=C1/C(=C2/COCCN2)c2cc(N3CCCCC3)ccc2N1C1CCOCC1` [Compound 86], the IC50 is 69 nM.

On to `CC(C)Nc1ccc2c(c1)/C(=C1\CN(C(C)C)CCN1)C(=O)N2C(C)C` [Compound 88], for which the IC50 came to 68 nM.

Take `CC(C)Nc1ccc2c(c1)/C(=C1\COCCN1)C(=O)N2C(C)(C)C` [Compound 90]: the IC50 is 428 nM.

`CC(C)N1CCC2(CC1)CN/C(=C1\C(=O)N(C(C)C)c3ccc(N4CCCC4)cc31)CO2` [Compound 91]: the IC50 came to 242 nM.

In the case of `CC1COC/C(=C2/C(=O)N(C3CCOCC3)c3ccc(N4C(C)CCC4C)cc32)N1` (stereo not shown) [Compound 93], the IC50 is 24 nM.

For the molecule `CC(C)N1C(=O)/C(=C2/COCCN2)c2cc(NC3CCCC3)ccc21` [Compound 94], the concentration for half-maximal inhibition (IC50) came to 558 nM.

Consider `CC(C)C(C)Nc1ccc2c(c1)/C(=C1\COCCN1)C(=O)N2C(C)C` (stereo not shown) [Compound 95], for which the half-maximal inhibitory concentration (IC50) was 151 nM.

Take `CC(C)N1CCC(Nc2ccc3c(c2)/C(=C2\COCCN2)C(=O)N3C(C)C)CC1` [Compound 96]: the IC50 came out at 63 nM.

As to `CC(Nc1ccc2c(c1)/C(=C1\COCCN1)C(=O)N2C(C)C)C1CC1` (stereo not shown) [Compound 97], the IC50 was determined as 344 nM.

Consider `CC(C)N1C(=O)/C(=C2/COCCN2)c2cc(NC3COC3)ccc21` [Compound 98], for which the half-inhibitory concentration (IC50) came out at 187 nM.

Turning to `COCC(C)Nc1ccc2c(c1)/C(=C1\COCCN1)C(=O)N2C1CCOCC1` (stereo not shown) [Compound 99], the IC50 worked out at 451 nM.

As for `CC(Nc1ccc2c(c1)/C(=C1\COCCN1)C(=O)N2C1CCOCC1)c1cccnc1` (stereo not shown) [Compound 100], the IC50 was determined as 34 nM.

Take `CC1CCCC1Nc1ccc2c(c1)/C(=C1\COCCN1)C(=O)N2C1CCOCC1` (stereo not shown) [Compound 102]: the IC50 was found to be 109 nM.

As for `O=C1/C(=C2/COCCN2)c2cc(NCC3CC3)ccc2N1C1CCOCC1` [Compound 103], the IC50 was 76 nM.

As for `CN(C)c1ccc2c(c1)C(=C1NCC3(CCCCC3)CN1)C(=O)N2C` [Compound 104], the IC50 worked out at 704 nM.

Turning to `CN(C)c1ccc2c(c1)/C(=C1\CCCCCN1)C(=O)N2C` [Compound 105], the IC50 was determined as 64 nM.

As to `CN(C)c1ccc2c(c1)/C(=C1/NCCN1c1ccccc1)C(=O)N2C` [Compound 106], the half-inhibitory concentration (IC50) was 327 nM.

Take `CN1C(=O)/C(=C2/CCOCCN2)c2cc(N3CCCC3)ccc21` [Compound 107]: the IC50 worked out at 299 nM.

For the molecule `CN(C)c1ccc2c(c1)/C(=C1\CCN(C(=O)OCc3ccccc3)CCN1)C(=O)N2C` [Compound 108], the IC50 stood at 118 nM.

For the molecule `CC(C)N1CCN/C(=C2\C(=O)N(C)c3ccc(N4CCCC4)cc32)CC1` [Compound 110], the IC50 is 264 nM.

With `CC(=O)N1CCN/C(=C2\C(=O)N(C3CCOCC3)c3ccc(NC(C)C)cc32)C1` [Compound 111], the IC50 is 119 nM.

Consider `O=C1C(=C2CCOCC2)c2cc(N3CCCC3)ccc2N1C1CCOCC1` [Compound 112], for which the IC50 turned out to be 352 nM.

Consider `CC(C)N1C(=O)/C(=C2/CCCCN2)c2cc(N(C3CCC3)C3CCC3)ccc21` [Compound 113], for which the half-maximal inhibitory concentration (IC50) worked out at 106 nM.

Turning to `CC(C)Nc1ccc2c(c1)/C(=C1\CN(C3COC3)CCN1)C(=O)N2C(C)C` [Compound 114], the IC50 came to 58 nM.

Regarding `CC(C)Nc1ccc2c(c1)/C(=C1\CCCN1C)C(=O)N2C(C)C` [Compound 115], the IC50 amounted to 80 nM.

Turning to `CC(C)N1C(=O)C(=C2CCOCC2)c2cc(NC3CCCC3)ccc21` [Compound 116], the IC50 turned out to be 539 nM.

In the case of `O=C1/C(=C2/COCCN2)c2cc(N3CCCC3)ccc2N1C1CCOCC1` [Compound 117], the IC50 was 738 nM.

For the molecule `COCC(C)N1C(=O)/C(=C2/COCCN2)c2cc(N3CCC(O)C3)ccc21` (stereo not shown) [Compound 119], the IC50 turned out to be 422 nM.

As to `O=C1/C(=C2/CCOCCN2)c2cc(NC3CCC3)ccc2N1C1CCOCC1` [Compound 120], the 50% inhibitory concentration (IC50) was 235 nM.
